Read-outs that look alike come from different tables or passages of the source.
Key:
Type in all cases: cell-based
[1] = target: T1, hKvLQT1/hminK potassium channels (Homo sapiens, UniProt P51787); assay: hKvLQT1/hminK potassium channel automated patch clamp; settings: CHO cells, read-out: KvLQT ion channel inhibition
T1 construct: expressed in transfected cells; host or cells: CHO cells
Protocol: (§1) Compounds of the present invention were tested for their anti-arrhythmic activity in a series of in vitro cardiac ion channel assays using cloned human channels expressed in CHO cells or HEK293 cells: • 1. Cloned L-type calcium channels (hCav1.2, encoded by the human CACNA1C gene and coexpressed with the (32 subunit, encoded by the human CACNB2 gene and the α2δ1 subunit encoded by the human CACNA2D1 gene, in CHO cells), responsible for Ica,L, high threshold calcium current. • 2. Cloned hERG potassium channels (encoded by the KCNH2 gene and expressed in human embryonic kidney, HEK293, cells) responsible for IKr. • 3. Cloned hKir2.1 potassium channels (encoded by the human KCNJ2 gene and expressed in HEK293 cells), responsible for IKI, inwardly rectifying potassium current. • 4. Cloned hKvLQT1/hminK potassium channels (encoded by the human KCNQ1 and KCNE1 genes and coexpressed in CHO cells), responsible for IKs, slow delayed rectifier potassium current. • 5. Cloned hKv1.5 potassium channels (encoded by the human KCNA5 gene and expressed in CHO cells), responsible for IKur, ultra-rapid delayed rectifier potassium current. • 6. Cloned hNav1.5 sodium channels (SCN5A gene, expressed in CHO cells). • 7. Cloned hKir3.1/hKir3.4 potassium channels (expressed by the human KCNJ3 and KCNJ5 genes and co-expressed in HEK293 cells) responsible for IACh, inwardly rectifying potassium current.
(§2) One concentration of a compound of the present invention was applied for a […] interval via disposable polyethylene micropipette tips to naïve cells (n≧2, where n=the number cells/concentration). Each solution exchange, performed in quadruplicate, consisted of aspiration and replacement of 45 μL volume of the extracellular well of the Sealchip16. Duration of exposure to the test compound was three minutes. For the hKir3.1/hKir3.4 assay, two concentrations of a compound of the present invention were used and the duration of exposure was 3 minutes.
In preparation for an automated patch clamp procedure recording session, intracellular solution was loaded into the intracellular compartments of the Sealchip16 or Qplate planar electrode. […] After establishment of a whole-cell configuration, membrane currents were recorded using dual-channel patch clamp amplifiers in the PatchXpress® or Qpatch HT® system. […]
Onset and steady state block of hKvLQT1/hminK current was measured using a pulse pattern with fixed amplitudes (depolarization: +40 mV for 2 s; repolarization: −40 mV for 0.5 s) repeated at 15 s intervals from a holding potential of −80 mV. Current amplitude was measured at the end of the step to +40 mV. […] Leakage current was measured after chromanol 293B addition and subtracted from the total membrane current record.

[2] = target: T2, hKir2.1 potassium channels (Homo sapiens, UniProt P63252); assay: hKir2.1 potassium channel automated patch clamp; settings: HEK293 cells, read-out: Kir2.1 ion channel inhibition
T2 construct: expressed in transfected cells; host or cells: HEK293 cells
T2 sequence (P63252 1-427): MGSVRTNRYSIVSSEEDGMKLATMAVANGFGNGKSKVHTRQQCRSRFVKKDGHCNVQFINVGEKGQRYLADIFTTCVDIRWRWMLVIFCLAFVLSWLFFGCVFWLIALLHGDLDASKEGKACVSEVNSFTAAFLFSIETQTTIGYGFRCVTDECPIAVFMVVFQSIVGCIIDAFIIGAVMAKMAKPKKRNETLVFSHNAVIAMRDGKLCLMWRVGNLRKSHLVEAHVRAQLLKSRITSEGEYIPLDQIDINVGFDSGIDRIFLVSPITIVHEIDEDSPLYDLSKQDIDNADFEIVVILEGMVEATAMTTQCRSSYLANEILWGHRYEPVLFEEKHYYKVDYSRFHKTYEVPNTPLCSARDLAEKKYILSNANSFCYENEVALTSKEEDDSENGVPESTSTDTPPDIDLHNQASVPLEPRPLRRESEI
Protocol: as §1, §2
(§3) In preparation for an automated patch clamp procedure recording session, intracellular solution was loaded into the intracellular compartments of the Sealchip16 or Qplate planar electrode. Cell suspension was pipetted into the extracellular compartments of the Sealchip16 or Qplate planar electrode. After establishment of a whole-cell configuration, membrane currents were recorded using dual-channel patch clamp amplifiers in the PatchXpress® or Qpatch HT® system. […]
Onset and steady state block of hKir2.1 current was measured using a pulse pattern with fixed amplitudes (hyperpolarization: −110 mV amplitude, 300 ms duration) repeated at 10 s intervals from a holding potential of −70 mV. Current amplitude was measured at the end of the step to −110 mV.

hCav1.2/β2/α2δ channels = target: T3, hCav1.2/β2/α2δ channels (Homo sapiens, UniProt Q13936); assay: hCav1.2 L-type calcium channel automated patch clamp; settings: CHO cells, read-out: Cav1.2 ion channel inhibition
T3 construct: expressed in transfected cells; host or cells: CHO cells
Protocol: as §1, §2
as §3, with “system. Before digitization, the current records were low-pass filtered at one-fifth of the sampling frequency.” for “system.”
Onset and steady state block of hCav1.2/β2/α2δ channels were measured using a stimulus voltage pattern consisting of a depolarizing test pulse (duration, 200 ms; amplitude, 10 mV) at 10 s intervals from a −80 mV holding potential. Peak current was measured during the step to 10 mV. […]

[3] = target: T4, hKir3.1/hKir3.4 potassium channels (Homo sapiens, UniProt P48544+P48549); assay: hKir3.1/hKir3.4 potassium channel automated patch clamp; settings: HEK293 cells; for inhibition at 1 µM: read-out: K(ach) @ 1 μM ion channel inhibition; for inhibition at 10 µM: read-out: K(ach) ion channel inhibition
T4 construct: expressed in transfected cells; host or cells: HEK293 cells
T4 sequence (P48549 1-501): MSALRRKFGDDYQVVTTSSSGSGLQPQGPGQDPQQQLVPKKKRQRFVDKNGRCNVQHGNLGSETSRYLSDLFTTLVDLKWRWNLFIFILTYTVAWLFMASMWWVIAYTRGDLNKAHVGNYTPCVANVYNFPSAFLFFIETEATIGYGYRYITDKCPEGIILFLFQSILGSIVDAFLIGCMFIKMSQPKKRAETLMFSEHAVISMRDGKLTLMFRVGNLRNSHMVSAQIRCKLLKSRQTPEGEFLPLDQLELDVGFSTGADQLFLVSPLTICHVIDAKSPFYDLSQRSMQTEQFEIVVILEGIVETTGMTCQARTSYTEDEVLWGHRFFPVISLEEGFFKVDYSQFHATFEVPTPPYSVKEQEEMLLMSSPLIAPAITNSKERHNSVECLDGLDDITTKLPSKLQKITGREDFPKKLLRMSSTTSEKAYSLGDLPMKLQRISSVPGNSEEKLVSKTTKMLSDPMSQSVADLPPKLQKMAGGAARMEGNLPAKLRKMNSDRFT
T4 sequence (P48544 1-419): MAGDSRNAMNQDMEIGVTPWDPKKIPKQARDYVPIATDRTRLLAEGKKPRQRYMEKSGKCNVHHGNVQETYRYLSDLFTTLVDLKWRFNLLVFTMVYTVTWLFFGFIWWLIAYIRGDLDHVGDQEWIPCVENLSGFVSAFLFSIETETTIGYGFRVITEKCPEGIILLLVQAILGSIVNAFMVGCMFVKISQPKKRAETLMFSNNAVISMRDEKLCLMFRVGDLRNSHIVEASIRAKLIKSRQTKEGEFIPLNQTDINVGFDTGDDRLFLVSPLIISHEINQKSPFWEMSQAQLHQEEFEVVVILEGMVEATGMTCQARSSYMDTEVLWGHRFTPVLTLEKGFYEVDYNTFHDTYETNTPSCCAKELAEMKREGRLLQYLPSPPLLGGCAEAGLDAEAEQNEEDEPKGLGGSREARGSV
Protocol: as §1, §2
(§4) In preparation for an automated patch clamp procedure recording session, intracellular solution was loaded into the intracellular compartments of the Sealchip16 or Qplate planar electrode. Cell suspension was pipetted into the extracellular compartments of the Sealchip16 or Qplate planar electrode. After establishment of a whole-cell configuration, membrane currents were recorded using dual-channel patch clamp amplifiers in the PatchXpress® or Qpatch HT® system. Before digitization, the current records were low-pass filtered at one-fifth of the sampling frequency.
(§5) Valid whole-call recordings met the following criteria: • 1. Membrane resistance (Rm)≧200 MΩ • 2. Leak current≦25% channel current. hCav1.2 Test Procedure
The in vitro effects of the compounds of the present invention were evaluated at room temperature using the PatchXpress (Model 7000A, Molecular Devices, Union City, Calif.), an automated parallel patch clamp system.

[4] = target: T5, hKv1.5 potassium channels (Homo sapiens, UniProt P22460); assay: hKv1.5 potassium channel automated patch clamp; settings: CHO cells, read-out: Kv1.5 ion channel inhibition
T5 construct: expressed in transfected cells; host or cells: CHO cells
Protocol: as §1, §2
as §4, with “frequency. […]” for “frequency.”
Onset and steady state block of hKv1.5 current was measured using a pulse pattern with fixed amplitudes (depolarization: +20 mV amplitude, 300 ms duration) repeated at 10 s intervals from a holding potential of −80 mV. Current amplitude was measured at the end of the step to +20 mV.

hNav1.5 sodium channels = target: T6, hNav1.5 sodium channels (Homo sapiens, UniProt Q14524); assay: hNav1.5 sodium channel automated patch clamp; settings: CHO cells
T6 construct: expressed in transfected cells; host or cells: CHO cells
Protocol: as §1, §2, §4, §5
Onset and steady-state block of hNav1.5 current was measured using double pulse pattern consisting of a series of two depolarizing test pulses to −15 mV. From a holding potential of −80 mV, an initial hyperpolarizing conditioning pre-pulse (−120 mV amplitude, 200 ms duration,) was followed immediately by the first depolarizing test pulse to −15 mV (200 ms duration). This was followed by a hyperpolarizing conditioning inter-pulse to −80 mV (200 ms duration) and then a second depolarizing test pulse to −15 mV for 20 ms. The pulse pattern was repeated at 10 s intervals and peak current amplitudes at both test pulses were measured.

[5] = target: T7, hERG potassium channel (KCNH2, IKr) (Homo sapiens, UniProt Q12809); assay: hERG potassium channel automated patch clamp; settings: HEK293 cells expressing cloned hERG potassium channels, read-out: hERG ion channel inhibition
T7 construct: expressed in transfected cells; host or cells: HEK293 cells
Protocol: One concentration of a compound of the present invention was applied for a five-minute interval via disposable polyethylene micropipette tips to naïve cells (n≧2, where n=the number cells/concentration). Each solution exchange, performed in quadruplicate, consisted of aspiration and replacement of 45 μL volume of the extracellular well of the Sealchip16. Duration of exposure to the test compound was three minutes.
Onset and block of hERG current was measured using a stimulus voltage pattern consisting of a 500 ms prepulse to −40 mV (leakage subtraction), a 2-second activating pulse to +40 mV, followed by a 2-second test pulse to −40 mV. Leakage current was calculated from the current amplitude evoked by the prepulse and subtracted from the total membrane current record.

[6] = phasic block, read-out: Nav1.5 phasic ion channel inhibition
[7] = tonic block, read-out: Nav1.5 tonic ion channel inhibition

T5 sequence (P22460 whole entry): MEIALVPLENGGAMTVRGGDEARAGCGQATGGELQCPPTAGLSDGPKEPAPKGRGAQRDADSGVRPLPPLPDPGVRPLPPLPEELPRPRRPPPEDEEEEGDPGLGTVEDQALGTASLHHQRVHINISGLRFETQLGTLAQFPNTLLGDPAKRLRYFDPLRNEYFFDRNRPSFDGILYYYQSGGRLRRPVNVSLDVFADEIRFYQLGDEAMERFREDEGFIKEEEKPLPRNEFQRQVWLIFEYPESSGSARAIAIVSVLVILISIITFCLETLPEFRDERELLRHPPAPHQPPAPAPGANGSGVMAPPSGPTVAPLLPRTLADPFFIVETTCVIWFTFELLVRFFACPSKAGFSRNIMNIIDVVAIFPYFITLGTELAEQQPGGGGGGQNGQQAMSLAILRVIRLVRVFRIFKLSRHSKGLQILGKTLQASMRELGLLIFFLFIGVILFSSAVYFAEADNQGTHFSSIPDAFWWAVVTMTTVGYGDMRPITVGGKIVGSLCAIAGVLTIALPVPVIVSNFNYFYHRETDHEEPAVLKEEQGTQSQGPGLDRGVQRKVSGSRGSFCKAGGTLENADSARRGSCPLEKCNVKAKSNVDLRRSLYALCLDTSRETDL
T6 sequence (Q14524 whole entry): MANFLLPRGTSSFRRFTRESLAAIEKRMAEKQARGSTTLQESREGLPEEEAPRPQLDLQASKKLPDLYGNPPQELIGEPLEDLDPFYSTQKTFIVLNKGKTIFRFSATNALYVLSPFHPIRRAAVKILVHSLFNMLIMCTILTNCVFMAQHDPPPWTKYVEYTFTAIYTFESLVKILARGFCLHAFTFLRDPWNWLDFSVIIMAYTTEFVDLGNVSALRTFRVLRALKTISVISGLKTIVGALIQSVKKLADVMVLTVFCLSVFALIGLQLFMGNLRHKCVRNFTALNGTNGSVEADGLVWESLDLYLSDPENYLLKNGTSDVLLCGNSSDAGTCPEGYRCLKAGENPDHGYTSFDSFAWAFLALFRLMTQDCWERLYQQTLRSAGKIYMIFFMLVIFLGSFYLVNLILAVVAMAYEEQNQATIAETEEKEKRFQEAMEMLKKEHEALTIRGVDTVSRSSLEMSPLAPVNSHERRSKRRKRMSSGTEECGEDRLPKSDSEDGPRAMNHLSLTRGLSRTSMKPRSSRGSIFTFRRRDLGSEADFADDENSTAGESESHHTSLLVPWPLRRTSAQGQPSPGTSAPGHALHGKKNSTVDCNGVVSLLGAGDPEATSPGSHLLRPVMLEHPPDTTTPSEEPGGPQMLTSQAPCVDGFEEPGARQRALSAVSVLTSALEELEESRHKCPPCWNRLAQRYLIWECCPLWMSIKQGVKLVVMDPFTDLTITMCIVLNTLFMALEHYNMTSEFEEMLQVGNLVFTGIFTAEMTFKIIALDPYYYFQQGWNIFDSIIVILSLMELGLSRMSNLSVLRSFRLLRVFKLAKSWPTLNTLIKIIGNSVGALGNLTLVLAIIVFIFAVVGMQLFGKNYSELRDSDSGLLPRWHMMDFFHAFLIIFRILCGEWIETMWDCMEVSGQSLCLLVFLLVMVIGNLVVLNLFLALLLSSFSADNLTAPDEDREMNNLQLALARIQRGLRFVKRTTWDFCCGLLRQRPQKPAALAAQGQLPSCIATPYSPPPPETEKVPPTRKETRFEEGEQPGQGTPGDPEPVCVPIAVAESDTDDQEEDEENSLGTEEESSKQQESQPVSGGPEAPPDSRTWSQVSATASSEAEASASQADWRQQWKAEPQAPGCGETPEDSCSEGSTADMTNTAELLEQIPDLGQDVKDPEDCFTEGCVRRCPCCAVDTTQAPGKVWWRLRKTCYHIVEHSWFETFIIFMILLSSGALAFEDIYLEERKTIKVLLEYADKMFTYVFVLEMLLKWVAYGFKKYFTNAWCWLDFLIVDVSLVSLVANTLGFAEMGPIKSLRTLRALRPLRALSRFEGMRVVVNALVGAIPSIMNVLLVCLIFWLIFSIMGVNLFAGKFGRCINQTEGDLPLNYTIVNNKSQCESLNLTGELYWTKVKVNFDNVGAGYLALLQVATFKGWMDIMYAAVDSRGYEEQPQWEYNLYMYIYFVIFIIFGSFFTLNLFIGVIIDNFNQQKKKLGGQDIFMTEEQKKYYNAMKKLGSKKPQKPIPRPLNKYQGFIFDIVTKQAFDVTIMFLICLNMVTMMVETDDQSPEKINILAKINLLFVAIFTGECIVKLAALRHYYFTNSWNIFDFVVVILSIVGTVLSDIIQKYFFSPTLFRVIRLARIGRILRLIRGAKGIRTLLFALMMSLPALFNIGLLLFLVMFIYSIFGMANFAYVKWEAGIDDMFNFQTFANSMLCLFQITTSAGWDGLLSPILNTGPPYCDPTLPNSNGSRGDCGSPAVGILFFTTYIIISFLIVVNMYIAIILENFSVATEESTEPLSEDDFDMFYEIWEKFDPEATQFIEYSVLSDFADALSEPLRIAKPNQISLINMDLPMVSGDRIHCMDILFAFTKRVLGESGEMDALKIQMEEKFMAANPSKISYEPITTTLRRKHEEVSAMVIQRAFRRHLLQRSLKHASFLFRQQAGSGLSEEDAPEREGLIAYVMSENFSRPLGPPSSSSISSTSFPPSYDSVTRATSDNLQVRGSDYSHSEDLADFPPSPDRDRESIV
T7 sequence (Q12809 whole entry): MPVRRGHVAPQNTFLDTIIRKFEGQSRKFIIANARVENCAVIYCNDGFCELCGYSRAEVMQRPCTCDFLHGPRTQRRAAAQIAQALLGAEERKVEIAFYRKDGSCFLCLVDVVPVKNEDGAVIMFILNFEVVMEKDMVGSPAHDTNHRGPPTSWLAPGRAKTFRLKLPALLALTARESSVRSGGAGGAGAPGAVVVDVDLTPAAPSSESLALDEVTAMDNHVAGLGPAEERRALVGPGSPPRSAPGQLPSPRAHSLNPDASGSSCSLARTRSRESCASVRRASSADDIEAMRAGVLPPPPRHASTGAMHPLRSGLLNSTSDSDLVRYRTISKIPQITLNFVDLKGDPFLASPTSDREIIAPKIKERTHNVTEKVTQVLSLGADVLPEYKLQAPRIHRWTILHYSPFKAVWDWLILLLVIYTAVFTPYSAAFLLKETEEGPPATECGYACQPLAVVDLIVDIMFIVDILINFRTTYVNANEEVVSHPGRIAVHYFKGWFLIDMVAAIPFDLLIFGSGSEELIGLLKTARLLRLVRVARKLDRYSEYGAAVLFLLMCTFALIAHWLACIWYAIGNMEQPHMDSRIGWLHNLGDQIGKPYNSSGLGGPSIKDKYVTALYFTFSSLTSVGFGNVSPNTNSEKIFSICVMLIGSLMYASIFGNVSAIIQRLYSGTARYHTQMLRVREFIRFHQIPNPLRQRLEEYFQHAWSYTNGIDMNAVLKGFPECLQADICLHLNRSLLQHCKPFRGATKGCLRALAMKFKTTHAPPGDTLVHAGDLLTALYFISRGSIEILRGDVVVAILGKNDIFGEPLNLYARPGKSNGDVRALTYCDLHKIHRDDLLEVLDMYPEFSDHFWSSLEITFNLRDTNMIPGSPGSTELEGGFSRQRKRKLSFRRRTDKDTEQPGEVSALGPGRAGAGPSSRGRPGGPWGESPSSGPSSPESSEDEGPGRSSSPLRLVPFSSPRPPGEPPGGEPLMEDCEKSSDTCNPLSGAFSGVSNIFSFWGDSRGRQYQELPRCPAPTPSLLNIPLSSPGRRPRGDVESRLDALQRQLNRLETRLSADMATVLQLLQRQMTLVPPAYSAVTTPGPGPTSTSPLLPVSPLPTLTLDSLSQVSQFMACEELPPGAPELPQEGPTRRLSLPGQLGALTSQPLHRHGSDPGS

inhibition at 10 µM [1] [%] | inhibition at 10 µM [2] [%] | inhibition at 1 µM [3] [%] | inhibition at 10 µM [3] [%] | inhibition at 10 µM [4] [%] | SMILES | inhibition at 10 µM (hCav1.2/β2/α2δ channels) [%] | inhibition at 10 µM (hNav1.5 sodium channels; [6]) [%] | inhibition at 10 µM (hNav1.5 sodium channels; [7]) [%] | inhibition at 3 min, 10 µM [5] [%]
49 | 0.3 | 16 | 49 | 54 | CCCCc1oc2ccccc2c1C(=O)c1cc(C(F)(F)F)c(OCCN(CC)CC)c(C(F)(F)F)c1 [Compound 1, (2-butylbenzofuran-3-yl)(4-(2-(diethylamino)ethoxy)-3,5-bis(trifluoromethyl)phenyl)methanone] | 101 | 26 | 11.5 | 55
2.5 | 2.7 | 1.4 | 4.6 | 21 | CCCCc1oc2ccccc2c1C(=O)c1cc(I)c(OCCN(CC)CC)c(C(F)(F)F)c1 [Compound 2, (2-butylbenzofuran-3-yl)(4-(2-(diethylamino)ethoxy)-3-iodo-5-(trifluoromethyl)phenyl) methanone] | 81 | 44 | 23 | 75
8.4 | 9.7 | 2.1 | 11 | 25 | CCCCc1oc2ccccc2c1C(=O)c1ccc(OCCN(CC)CC)c(C(F)(F)F)c1 [Compound 3, (2-butylbenzofuran-3-yl)(4-(2-(diethylamino)ethoxy)-3-(trifluoromethyl)phenyl)methanone] | 2 | 86 | 48 | 74

SMILES | inhibition at 10 µM [1] [%] | inhibition at 10 µM [2] [%] | inhibition at 1 µM [3] [%] | inhibition at 10 µM [3] [%] | inhibition at 10 µM [4] [%] | inhibition at 10 µM (hCav1.2/β2/α2δ channels) [%] | inhibition at 10 µM (hNav1.5 sodium channels; [6]) [%] | inhibition at 10 µM (hNav1.5 sodium channels; [7]) [%] | inhibition at 3 min, 10 µM [5] [%]
CCCCc1oc2ccccc2c1C(=O)c1cc(I)c(OCCN(CC)CC)c(I)c1 [Amiodarone, 2-n-butyl 3-[4-(2-diethylaminoethoxy) 3,5-diiodobenzoyl] benzofuran, reference compound] | -0.6 | 0.9 | 4.5 | 23 | 0.7 | 7.7 | 44 | 6.8 | 

Reference: US9895340B2, “Fluorinated benzofuran derivatives” (SciFluor Life Sciences, Inc., priority 2012, dated 2018)
